The record followed here is PubChem BioAssay (NCI).

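Growth conditions: 96-well plates. Treatment: test compound, 48 hours, 5 concentrations. Analysis: linear interpolation between bracketing concentrations; unreached endpoints set to highest concentration. TGI marks complete inhibition of growth.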

Among the test systems are A549 NSCLC; CAKI-1 renal; CCRF-CEM leukemia; COLO 205 colon; HL-60(TB) leukemia; HS 578T breast; K-562 leukemia; M14 melanoma; MDA-N; OVCAR-3 ovarian; PC-3 prostate; SF-268 CNS; T-47D breast.
Holding throughout (experiment): growth of human tumour cells (NCI), 48 h

On to `O=C1Nc2ccccc2/C1=C\c1c(-c2ccccc2)nc2n1CCS2`, for which the TGI was above 100 µM with A549 NSCLC; above 100 µM with CAKI-1 renal; above 100 µM with CCRF-CEM leukemia; 81.3 µM in the experiment with COLO 205 colon; 42.3 µM in the experiment with HL-60(TB) leukemia; 75.2 µM in the experiment with HS 578T breast. For the same molecule, the TGI in the experiment with K-562 leukemia was above 100 µM; in the experiment on M14 melanoma, 87.9 µM; with MDA-N, 65 µM; in the experiment with OVCAR-3 ovarian, 41.8 µM; in the experiment with PC-3 prostate, 48.3 µM; in the experiment on SF-268 CNS, 86.9 µM. Moreover, the TGI in the experiment with T-47D breast amounted to 76.8 µM.
As for `CC1(C)SCc2nc3ccccc3n21`, the TGI in the experiment with A549 NSCLC, in the experiment with CAKI-1 renal, with CCRF-CEM leukemia, in the experiment on COLO 205 colon, in the experiment on HL-60(TB) leukemia and in the experiment on HS 578T breast was above 100 µM in each case. For the same molecule, the TGI with K-562 leukemia, in the experiment with M14 melanoma, with MDA-N, with OVCAR-3 ovarian, with PC-3 prostate and in the experiment with SF-268 CNS was above 100 µM in each case. Further, in the experiment with T-47D breast, the TGI was above 100 µM.
For `CSC1=C(C#N)C(=O)N(c2ccc(C)cc2)C(=O)C1C#N` (stereo not given), the TGI in the experiment on A549 NSCLC, with CAKI-1 renal, in the experiment on CCRF-CEM leukemia, in the experiment on COLO 205 colon, with HL-60(TB) leukemia and in the experiment on HS 578T breast was above 100 µM throughout. For the same molecule, the TGI in the experiment on K-562 leukemia, in the experiment with M14 melanoma, with MDA-N, in the experiment on OVCAR-3 ovarian, in the experiment with PC-3 prostate and in the experiment with SF-268 CNS was above 100 µM throughout. Further, in the experiment with T-47D breast, the TGI was above 100 µM.
`CO[C@H]1O[C@@H]2OC3(C)CCC4[C@H](C)CCC([C@H]1C)[C@]42OO3` (stereo not given in full): the TGI in the experiment with A549 NSCLC is above 100 µM; with CAKI-1 renal, above 100 µM; in the experiment with CCRF-CEM leukemia, above 100 µM; in the experiment on COLO 205 colon, above 100 µM; in the experiment with HL-60(TB) leukemia, 46.7 µM; in the experiment on HS 578T breast, above 100 µM. The TGI in the experiment with K-562 leukemia, with M14 melanoma, in the experiment with MDA-N, in the experiment with OVCAR-3 ovarian, in the experiment on PC-3 prostate and with SF-268 CNS was above 100 µM in each case. For the same molecule, in the experiment with T-47D breast, the TGI is above 100 µM.
With `Cc1c(-c2nc(N)c(C#N)c(N)c2C#N)c(=O)oc2ccccc12`, the TGI with A549 NSCLC, with CAKI-1 renal, in the experiment with CCRF-CEM leukemia, in the experiment on COLO 205 colon, with HL-60(TB) leukemia and in the experiment on HS 578T breast was above 100 µM throughout. Moreover, the TGI in the experiment with K-562 leukemia, in the experiment with M14 melanoma, in the experiment on MDA-N, in the experiment with OVCAR-3 ovarian, in the experiment with PC-3 prostate and in the experiment with SF-268 CNS was above 100 µM in each case. In addition, in the experiment on T-47D breast, the TGI was above 100 µM.
Consider `CCCNCC(O)CNc1ccc(NCC(O)CNCCC)c2c1C(=O)c1ccccc1C2=O` (stereo not given), for which the TGI in the experiment on A549 NSCLC came out at 4.64 µM; with CAKI-1 renal it was 28.7 µM; with CCRF-CEM leukemia, 4.35 µM; in the experiment with COLO 205 colon it was 7.97 µM; in the experiment with HL-60(TB) leukemia it was 18.9 µM; in the experiment with HS 578T breast, 16.6 µM. Moreover, the TGI in the experiment with K-562 leukemia turned out to be 8.21 µM; in the experiment with M14 melanoma, 11 µM; in the experiment with MDA-N, 11.7 µM; with OVCAR-3 ovarian, 13.7 µM; in the experiment with PC-3 prostate, 4.7 µM; with SF-268 CNS it was 5.66 µM. This molecule also gave a TGI with T-47D breast of 14.6 µM.
Take `COC(=O)c1ccc(C)cc1C1CN=NC12Cc1cc(C)ccc1C2=O` (stereo not given): the TGI in the experiment with A549 NSCLC was above 100 µM; in the experiment on CAKI-1 renal, 97.3 µM; in the experiment on CCRF-CEM leukemia, above 100 µM; with COLO 205 colon, 19.1 µM; in the experiment on HL-60(TB) leukemia, 16.3 µM; in the experiment with HS 578T breast, 41.3 µM. Moreover, the TGI in the experiment on K-562 leukemia was above 68.1 µM; in the experiment on M14 melanoma, 36.9 µM; with MDA-N it was 6.11 µM; in the experiment on OVCAR-3 ovarian, above 80.1 µM; with PC-3 prostate, 58.1 µM; with SF-268 CNS, above 100 µM. Also, the TGI with T-47D breast was above 100 µM.
For the molecule `COc1cc2c(cc1O)Cc1c-2[n+](C)cc2cc(OC)c(OC)cc12`, the TGI is above 100 µM in the experiment with A549 NSCLC; above 100 µM with CAKI-1 renal; above 24.9 µM with CCRF-CEM leukemia; above 100 µM in the experiment with COLO 205 colon; above 100 µM in the experiment with HL-60(TB) leukemia; above 100 µM in the experiment on HS 578T breast. For the same molecule, the TGI in the experiment with K-562 leukemia, in the experiment on M14 melanoma, in the experiment with MDA-N, with OVCAR-3 ovarian, in the experiment on PC-3 prostate and with SF-268 CNS was above 100 µM each time. The molecule also showed a TGI in the experiment on T-47D breast above 100 µM.
For `CC(C)COP(C)(=O)C(N)(C(F)(F)F)C(F)(F)F` (stereo not given), the TGI in the experiment with A549 NSCLC, in the experiment on CAKI-1 renal, in the experiment on CCRF-CEM leukemia, in the experiment on COLO 205 colon, with HL-60(TB) leukemia and with HS 578T breast was above 100 µM in each case. In addition, the TGI in the experiment with K-562 leukemia, with M14 melanoma, in the experiment with MDA-N, in the experiment on OVCAR-3 ovarian, with PC-3 prostate and in the experiment with SF-268 CNS was above 100 µM throughout. Moreover, the TGI in the experiment with T-47D breast was above 100 µM.
As for `C/C(=N\O)C1CC2C=C(C#N)C1N(Cc1ccccc1)C2` (stereo not given), the TGI with A549 NSCLC, in the experiment on CAKI-1 renal, with CCRF-CEM leukemia, in the experiment on COLO 205 colon, in the experiment on HL-60(TB) leukemia and in the experiment with HS 578T breast was above 100 µM throughout. The TGI with K-562 leukemia, with M14 melanoma, with MDA-N, in the experiment on OVCAR-3 ovarian, in the experiment with PC-3 prostate and in the experiment on SF-268 CNS was above 100 µM throughout. In the experiment with T-47D breast, the TGI was above 100 µM.
